Data: PMC4457528, “Identification of Novel Small Molecule Inhibitors of Oncogenic RET Kinase” (PLoS ONE, 2015)
Several values for one entry are separate records, joined by “and”; a condition that tells them apart may be missing. Equal entries are not always repeated. Where two headings read alike, the source gives them in different places.

How the values were obtained:
Test in all cases: KinomeScan kinase panel, single concentration 10 µM
Assay type in all cases: binding
[1] = molecular target: T1, KinomeScan kinase panel (Homo sapiens, UniProt P36888, D835Y); details: FLT3(D835Y), 10 µM; read-out: score (%)
T1 construct: purchased DiscoveRx (KinomeScan)
T1 sequence (P36888 27-993 D835Y): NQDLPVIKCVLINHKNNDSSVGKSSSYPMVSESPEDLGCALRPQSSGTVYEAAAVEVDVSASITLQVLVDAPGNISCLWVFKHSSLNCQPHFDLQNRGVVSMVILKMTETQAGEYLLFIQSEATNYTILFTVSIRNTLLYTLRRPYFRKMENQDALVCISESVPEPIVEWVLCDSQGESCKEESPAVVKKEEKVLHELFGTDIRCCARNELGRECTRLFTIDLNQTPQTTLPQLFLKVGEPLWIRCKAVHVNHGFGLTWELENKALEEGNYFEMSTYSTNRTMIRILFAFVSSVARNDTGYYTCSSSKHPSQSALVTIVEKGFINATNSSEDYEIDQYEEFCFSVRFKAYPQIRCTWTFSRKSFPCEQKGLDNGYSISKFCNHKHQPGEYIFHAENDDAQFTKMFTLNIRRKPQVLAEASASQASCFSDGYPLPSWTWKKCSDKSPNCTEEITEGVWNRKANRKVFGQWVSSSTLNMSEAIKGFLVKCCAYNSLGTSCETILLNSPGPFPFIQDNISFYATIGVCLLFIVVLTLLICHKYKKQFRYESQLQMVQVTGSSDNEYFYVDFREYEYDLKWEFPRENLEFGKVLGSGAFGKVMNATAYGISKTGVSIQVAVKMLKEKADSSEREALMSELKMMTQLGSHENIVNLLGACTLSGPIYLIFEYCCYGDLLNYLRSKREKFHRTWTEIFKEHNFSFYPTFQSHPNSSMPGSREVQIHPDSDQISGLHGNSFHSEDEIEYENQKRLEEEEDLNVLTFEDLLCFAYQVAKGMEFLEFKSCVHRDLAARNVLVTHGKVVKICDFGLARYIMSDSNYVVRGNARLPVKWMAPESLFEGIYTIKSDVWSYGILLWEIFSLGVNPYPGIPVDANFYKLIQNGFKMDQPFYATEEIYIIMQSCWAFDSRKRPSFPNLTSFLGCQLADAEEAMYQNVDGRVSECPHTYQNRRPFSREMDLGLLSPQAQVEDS

[2] = molecular target: T2, KinomeScan kinase panel (Homo sapiens, UniProt P14616); details: INSRR, 10 µM; read-out: score (%)
T2 construct: purchased DiscoveRx (KinomeScan)
T2 sequence (P14616 27-1297): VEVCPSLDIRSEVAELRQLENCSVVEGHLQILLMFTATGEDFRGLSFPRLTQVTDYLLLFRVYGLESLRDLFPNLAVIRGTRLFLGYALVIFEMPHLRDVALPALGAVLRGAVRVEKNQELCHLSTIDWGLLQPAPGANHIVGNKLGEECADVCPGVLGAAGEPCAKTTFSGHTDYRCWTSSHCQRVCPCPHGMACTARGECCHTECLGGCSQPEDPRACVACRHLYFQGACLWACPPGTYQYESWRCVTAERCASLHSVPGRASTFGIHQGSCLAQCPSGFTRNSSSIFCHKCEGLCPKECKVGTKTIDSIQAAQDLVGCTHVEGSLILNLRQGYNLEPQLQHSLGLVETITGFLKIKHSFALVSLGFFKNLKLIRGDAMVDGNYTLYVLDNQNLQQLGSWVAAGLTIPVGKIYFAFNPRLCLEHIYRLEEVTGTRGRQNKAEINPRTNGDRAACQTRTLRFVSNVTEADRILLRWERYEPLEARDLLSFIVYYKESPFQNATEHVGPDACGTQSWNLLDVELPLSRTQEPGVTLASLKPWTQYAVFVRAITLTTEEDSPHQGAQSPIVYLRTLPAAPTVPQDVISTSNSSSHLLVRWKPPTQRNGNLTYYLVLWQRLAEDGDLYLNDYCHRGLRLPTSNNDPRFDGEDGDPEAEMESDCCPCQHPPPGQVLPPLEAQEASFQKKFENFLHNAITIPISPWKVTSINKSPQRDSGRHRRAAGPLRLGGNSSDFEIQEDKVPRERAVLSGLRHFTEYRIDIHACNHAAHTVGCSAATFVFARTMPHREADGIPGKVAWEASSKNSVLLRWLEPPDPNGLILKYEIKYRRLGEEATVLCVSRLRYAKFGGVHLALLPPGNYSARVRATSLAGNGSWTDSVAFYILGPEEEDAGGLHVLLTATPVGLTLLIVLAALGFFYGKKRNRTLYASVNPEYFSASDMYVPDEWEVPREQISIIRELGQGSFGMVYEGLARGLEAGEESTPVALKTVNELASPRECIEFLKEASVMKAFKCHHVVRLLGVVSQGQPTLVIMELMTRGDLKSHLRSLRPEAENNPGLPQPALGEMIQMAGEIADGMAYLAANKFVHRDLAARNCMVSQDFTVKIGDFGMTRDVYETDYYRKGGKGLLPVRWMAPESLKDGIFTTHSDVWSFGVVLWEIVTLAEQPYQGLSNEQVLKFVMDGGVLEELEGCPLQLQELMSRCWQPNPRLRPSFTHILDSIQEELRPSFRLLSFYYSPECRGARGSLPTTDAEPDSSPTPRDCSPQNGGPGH

[3] = molecular target: T3, KinomeScan kinase panel (Homo sapiens, UniProt P33981); details: kinase TTK; 10 µM; read-out: score (%)
T3 construct: purchased DiscoveRx (KinomeScan)
T3 sequence (P33981 1-857): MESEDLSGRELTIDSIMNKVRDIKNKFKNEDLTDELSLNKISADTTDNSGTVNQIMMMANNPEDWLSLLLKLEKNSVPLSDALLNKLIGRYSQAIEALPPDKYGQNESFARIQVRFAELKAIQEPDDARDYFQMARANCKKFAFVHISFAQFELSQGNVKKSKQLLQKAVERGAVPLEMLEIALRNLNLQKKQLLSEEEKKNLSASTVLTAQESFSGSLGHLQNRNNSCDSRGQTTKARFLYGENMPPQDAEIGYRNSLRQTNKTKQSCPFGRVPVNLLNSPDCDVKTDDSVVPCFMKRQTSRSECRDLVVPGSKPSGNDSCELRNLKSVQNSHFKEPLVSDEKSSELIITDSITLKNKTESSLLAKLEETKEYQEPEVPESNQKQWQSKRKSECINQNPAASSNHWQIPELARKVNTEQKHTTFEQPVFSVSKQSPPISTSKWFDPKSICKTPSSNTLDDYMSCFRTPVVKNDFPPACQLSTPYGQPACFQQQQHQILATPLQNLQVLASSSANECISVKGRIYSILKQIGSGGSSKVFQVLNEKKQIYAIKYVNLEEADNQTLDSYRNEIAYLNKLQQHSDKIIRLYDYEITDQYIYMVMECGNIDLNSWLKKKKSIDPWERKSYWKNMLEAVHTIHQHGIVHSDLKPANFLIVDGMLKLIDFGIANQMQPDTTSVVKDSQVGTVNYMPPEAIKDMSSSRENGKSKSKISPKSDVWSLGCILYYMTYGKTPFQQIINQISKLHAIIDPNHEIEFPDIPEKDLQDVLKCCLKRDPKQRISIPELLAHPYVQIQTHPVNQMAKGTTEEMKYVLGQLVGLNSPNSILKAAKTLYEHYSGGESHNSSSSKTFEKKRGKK

[4] = molecular target: T4, KinomeScan kinase panel (Homo sapiens, UniProt O43318); details: read-out: score (%)
T4 construct: purchased DiscoveRx (KinomeScan)
T4 sequence (O43318 1-606): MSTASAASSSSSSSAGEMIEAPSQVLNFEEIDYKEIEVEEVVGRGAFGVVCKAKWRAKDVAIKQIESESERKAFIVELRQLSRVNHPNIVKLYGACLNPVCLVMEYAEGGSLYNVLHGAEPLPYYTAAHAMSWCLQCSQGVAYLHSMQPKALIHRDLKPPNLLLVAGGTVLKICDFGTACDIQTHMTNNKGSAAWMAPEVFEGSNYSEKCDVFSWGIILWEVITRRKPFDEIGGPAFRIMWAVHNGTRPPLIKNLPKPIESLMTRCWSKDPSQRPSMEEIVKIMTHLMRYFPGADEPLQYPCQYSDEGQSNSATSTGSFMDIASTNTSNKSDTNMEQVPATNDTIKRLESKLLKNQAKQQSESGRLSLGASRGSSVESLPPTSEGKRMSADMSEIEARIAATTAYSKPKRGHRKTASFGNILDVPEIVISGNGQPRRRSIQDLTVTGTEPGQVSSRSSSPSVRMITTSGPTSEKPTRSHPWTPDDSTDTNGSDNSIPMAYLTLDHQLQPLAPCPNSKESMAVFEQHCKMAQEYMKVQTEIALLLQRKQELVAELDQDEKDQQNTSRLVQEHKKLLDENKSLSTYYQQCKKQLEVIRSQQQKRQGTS

[5] = molecular target: T5, KinomeScan kinase panel (Homo sapiens, UniProt P15056); details: BRAF, 10 µM; read-out: score (%)
T5 construct: purchased DiscoveRx (KinomeScan)
T5 sequence (P15056 whole entry): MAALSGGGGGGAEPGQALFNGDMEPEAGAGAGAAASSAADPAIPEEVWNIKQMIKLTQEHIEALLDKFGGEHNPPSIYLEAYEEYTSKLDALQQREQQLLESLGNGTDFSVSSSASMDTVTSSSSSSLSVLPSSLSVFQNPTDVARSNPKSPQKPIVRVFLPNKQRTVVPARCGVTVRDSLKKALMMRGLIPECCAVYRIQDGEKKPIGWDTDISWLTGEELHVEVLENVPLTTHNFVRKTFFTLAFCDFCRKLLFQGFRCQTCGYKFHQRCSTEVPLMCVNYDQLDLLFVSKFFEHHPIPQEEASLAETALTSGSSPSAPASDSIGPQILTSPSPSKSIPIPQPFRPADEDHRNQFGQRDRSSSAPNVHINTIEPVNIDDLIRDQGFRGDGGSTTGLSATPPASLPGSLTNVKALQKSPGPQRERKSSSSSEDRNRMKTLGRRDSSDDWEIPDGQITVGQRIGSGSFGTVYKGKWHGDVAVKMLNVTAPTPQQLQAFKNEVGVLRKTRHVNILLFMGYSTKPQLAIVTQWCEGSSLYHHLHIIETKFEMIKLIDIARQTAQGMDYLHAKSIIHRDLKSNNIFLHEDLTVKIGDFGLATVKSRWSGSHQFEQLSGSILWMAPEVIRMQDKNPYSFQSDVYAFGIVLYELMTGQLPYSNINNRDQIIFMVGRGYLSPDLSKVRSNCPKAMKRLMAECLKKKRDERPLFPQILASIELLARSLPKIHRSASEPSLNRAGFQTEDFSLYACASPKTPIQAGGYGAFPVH

[6] = test system: KinomeScan kinase panel
[7] = molecular target: T6, KinomeScan kinase panel (Homo sapiens, UniProt Q06187); details: BTK, 10 µM
T6 construct: purchased DiscoveRx (KinomeScan)
T6 sequence (Q06187 whole entry): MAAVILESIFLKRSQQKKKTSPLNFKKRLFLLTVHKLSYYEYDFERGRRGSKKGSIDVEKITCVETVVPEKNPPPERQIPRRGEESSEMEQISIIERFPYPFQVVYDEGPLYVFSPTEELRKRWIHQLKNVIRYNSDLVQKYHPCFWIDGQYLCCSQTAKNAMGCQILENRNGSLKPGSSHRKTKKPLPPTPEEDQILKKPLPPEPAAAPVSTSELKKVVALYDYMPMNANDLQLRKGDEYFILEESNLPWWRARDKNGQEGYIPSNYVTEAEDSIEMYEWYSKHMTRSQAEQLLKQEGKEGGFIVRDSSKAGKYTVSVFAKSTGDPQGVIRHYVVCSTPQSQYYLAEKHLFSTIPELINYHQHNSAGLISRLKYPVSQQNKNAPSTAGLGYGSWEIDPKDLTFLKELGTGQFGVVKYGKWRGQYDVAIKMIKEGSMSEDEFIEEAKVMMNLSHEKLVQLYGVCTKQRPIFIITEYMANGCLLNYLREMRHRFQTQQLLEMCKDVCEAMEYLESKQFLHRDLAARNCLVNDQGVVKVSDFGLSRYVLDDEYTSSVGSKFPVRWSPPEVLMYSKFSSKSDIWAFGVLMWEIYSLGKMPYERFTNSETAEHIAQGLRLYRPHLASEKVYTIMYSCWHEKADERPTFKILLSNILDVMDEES

[8] = EGFR(L747-E749del. A750P), 10 µM
[9] = EGFR(L747-S752del. P753S), 10 µM

remaining binding at 10 µM ([4]; TAK1, 10 µM)	Compound	remaining binding at 10 µM [1]	remaining binding at 10 µM [2]	remaining binding at 10 µM [3]	remaining binding at 10 µM ([4]; kinase TAK1, 10 µM)	remaining binding at 10 µM [5]	score (%) [6, 8]	score (%) [6, 9]	score (%) ([6]; EGFR(L747-T751del.Sins), 10 µM)	score (%) ([6]; FLT3(ITD), 10 µM)	score (%) [7]	score (%) [6]	score (%) ([6]; kinase TAO1, 10 µM)
	CCN1CCN(Cc2ccc(NC(=O)c3ccc(C)c(C#Cc4cccnc4)c3)cc2C(F)(F)F)CC1 [XMD15-44]	0.5%	> 30%	16%	0.2%	0.05%	1.2%	0.9%	0.45%	0.1%	2%		
0.1%	CCN1CCN(Cc2ccc(NC(=O)c3ccc(C)c(/C=C/c4cnc5[nH]ccc5c4Cl)c3)cc2C(F)(F)F)CC1 [HG-6-63-01, (E)-3-(2-(4-chloro-1H-pyrrolo[2,3-b]pyridin-5-yl)vinyl)-N-(4-((4-ethylpiperazin-1-yl)methyl)-3-(trifluoromethyl)phenyl)-4-methylbenzamide]	0.85%	> 30%	> 30%		1.2%	0%	0%	0%	0.1%	3.8%		
	CCN1CCN(Cc2ccc(NC(=O)c3ccc(C)c(NC(=O)c4cncc(-c5cccs5)c4)c3)cc2C(F)(F)F)CC1 [ALW-II-41-27]	3.3%	8.8%	> 30%	0%	1.8%				0.4%	0.1%	0.55% and 3% and 1.8%	12%
